Tests used:
[1] = test system: CD4+ T cells; experiment: cell-culture assay of T cell proliferation and Th1 differentiation; assay type: cell-based
[2] = test system: EAE animals; experiment: LY411575 injected into EAE animals; assay type: in vivo
Method: When LY411575 was injected into EAE animals, the severity of EAE was decreased.

[3] = test system: T cells; conditions: Minter et al. 2005; cited from earlier work
[4] = test system: EAE; conditions: injected prior to disease onset; Minter et al. 2005; cited from earlier work
[5] = target: T1, γ-secretase (Homo sapiens, UniProt P49768); conditions: recombinant APP C100 substrate; Takahashi et al. 2003; cited from earlier work
[6] = test system: aged rats; conditions: total dose infused i.v.=1 ug, Fischer et al. 1987; cited from earlier work
[7] = target: T1, γ-secretase; conditions: displacement assay; cited from earlier work
[8] = test system: MS patients; conditions: some, but not all, onsets approximately six months following the onset of therapy; cited from earlier work
[9] = test system: EAE; conditions: Sanna et al. 2006; cited from earlier work

C[C@H](NC(=O)[C@@H](O)c1cc(F)cc(F)c1)C(=O)N[C@@H]1C(=O)N(C)c2ccccc2-c2ccccc21 [LY411575]
amount of T cell differentiation of the inflammatory Th1 subset of CD4+ T cells [1]: decreased
effect on T cell proliferation [1]: no observed effect
severity of EAE [2]: decreased
Th1 differentiation in vitro [3]: decreased
effect on T cell proliferation [3]: no effect
severity of EAE [4]: lessened

CSc1ccc(/C=C2/C(C)=C(CC(=O)O)c3cc(F)ccc32)cc1 [sulindac sulfide]
γ-secretase activity [5]: preferentially inhibits

NGF: nerve growth factor
cholinergic neuron atrophy and spatial memory impairment [6]: ameliorate

C[C@H](NC(=O)Cc1cc(F)cc(F)c1)C(=O)N[C@H](C(=O)OC(C)(C)C)c1ccccc1 [DAPT]
competition for the γ-secretase active site [7]: compete moderately

glatiramer acetate [GA]
clinical relapses [8]: modest reduction
progression of EAE [9]: block progression

— patent publication US20080233132A1, “MULTIPLE SCLEROSIS THERAPY” (priority 2006, published 2008)
